Laboratory results reported in the kinase profiling compilation of Christmann-Franck et al. (2016).

Legend:
Experiment in all cases: radiometric filter-binding kinase assay, Kinase HotSpot
Conditions in all cases: compound 0.5 µM; ATP 10 µM
ABL1 (human) = ABL1 (human) (UniProt P00519)
ACVRL1 (human) = ACVRL1 (human) (UniProt P37023)
AKT1 (human) = AKT1 (human) (UniProt P31749)
AURKC (human) = AURKC (human) (UniProt Q9UQB9)
CDC42BPA (human) = CDC42BPA (human) (UniProt Q5VT25)
CDK6 CCND3 (human) = CDK6 CCND3 (human) (UniProt P30281+Q00534)
CDK9 CCNK (human) = CDK9 CCNK (human) (UniProt O75909+P50750)
CHUK (human) = CHUK (human) (UniProt O15111)
CSK (human) = CSK (human) (UniProt P41240)
CSK (human), sequence (P41240 whole entry, looked up): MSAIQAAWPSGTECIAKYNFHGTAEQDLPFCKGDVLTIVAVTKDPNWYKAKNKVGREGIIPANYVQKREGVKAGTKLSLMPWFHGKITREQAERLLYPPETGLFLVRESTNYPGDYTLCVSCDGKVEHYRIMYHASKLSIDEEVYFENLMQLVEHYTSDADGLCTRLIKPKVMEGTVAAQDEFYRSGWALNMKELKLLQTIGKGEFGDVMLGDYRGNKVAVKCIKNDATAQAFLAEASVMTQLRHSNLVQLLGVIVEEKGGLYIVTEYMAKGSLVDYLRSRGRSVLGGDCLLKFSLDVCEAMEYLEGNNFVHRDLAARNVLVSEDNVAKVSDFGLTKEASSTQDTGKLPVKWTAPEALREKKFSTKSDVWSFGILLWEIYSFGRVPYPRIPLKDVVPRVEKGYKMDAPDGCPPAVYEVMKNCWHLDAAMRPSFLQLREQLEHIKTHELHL

CSNK1G2 (human) = CSNK1G2 (human) (UniProt P78368)
CSNK2A1 (human) = CSNK2A1 (human) (UniProt P68400)
DCLK2 (human) = DCLK2 (human) (UniProt Q8N568)
DYRK1B (human) = DYRK1B (human) (UniProt Q9Y463)
DYRK2 (human) = DYRK2 (human) (UniProt Q92630)
EGFR (human) = EGFR (human) (UniProt P00533)
EPHA1 (human) = EPHA1 (human) (UniProt P21709)
FGR (human) = FGR (human) (UniProt P09769)
GRK6 (human) = GRK6 (human) (UniProt P43250)
HIPK1 (human) = HIPK1 (human) (UniProt Q86Z02)
IRAK1 (human) = IRAK1 (human) (UniProt P51617)
[1] = molecular target: JAK1 JH1 catalytic (human) (UniProt P23458)
JAK2 JH1 JH2 (human) = JAK2 JH1 JH2 (human) (UniProt O60674)
JAK2 JH1 JH2 (human), sequence (O60674 whole entry, looked up): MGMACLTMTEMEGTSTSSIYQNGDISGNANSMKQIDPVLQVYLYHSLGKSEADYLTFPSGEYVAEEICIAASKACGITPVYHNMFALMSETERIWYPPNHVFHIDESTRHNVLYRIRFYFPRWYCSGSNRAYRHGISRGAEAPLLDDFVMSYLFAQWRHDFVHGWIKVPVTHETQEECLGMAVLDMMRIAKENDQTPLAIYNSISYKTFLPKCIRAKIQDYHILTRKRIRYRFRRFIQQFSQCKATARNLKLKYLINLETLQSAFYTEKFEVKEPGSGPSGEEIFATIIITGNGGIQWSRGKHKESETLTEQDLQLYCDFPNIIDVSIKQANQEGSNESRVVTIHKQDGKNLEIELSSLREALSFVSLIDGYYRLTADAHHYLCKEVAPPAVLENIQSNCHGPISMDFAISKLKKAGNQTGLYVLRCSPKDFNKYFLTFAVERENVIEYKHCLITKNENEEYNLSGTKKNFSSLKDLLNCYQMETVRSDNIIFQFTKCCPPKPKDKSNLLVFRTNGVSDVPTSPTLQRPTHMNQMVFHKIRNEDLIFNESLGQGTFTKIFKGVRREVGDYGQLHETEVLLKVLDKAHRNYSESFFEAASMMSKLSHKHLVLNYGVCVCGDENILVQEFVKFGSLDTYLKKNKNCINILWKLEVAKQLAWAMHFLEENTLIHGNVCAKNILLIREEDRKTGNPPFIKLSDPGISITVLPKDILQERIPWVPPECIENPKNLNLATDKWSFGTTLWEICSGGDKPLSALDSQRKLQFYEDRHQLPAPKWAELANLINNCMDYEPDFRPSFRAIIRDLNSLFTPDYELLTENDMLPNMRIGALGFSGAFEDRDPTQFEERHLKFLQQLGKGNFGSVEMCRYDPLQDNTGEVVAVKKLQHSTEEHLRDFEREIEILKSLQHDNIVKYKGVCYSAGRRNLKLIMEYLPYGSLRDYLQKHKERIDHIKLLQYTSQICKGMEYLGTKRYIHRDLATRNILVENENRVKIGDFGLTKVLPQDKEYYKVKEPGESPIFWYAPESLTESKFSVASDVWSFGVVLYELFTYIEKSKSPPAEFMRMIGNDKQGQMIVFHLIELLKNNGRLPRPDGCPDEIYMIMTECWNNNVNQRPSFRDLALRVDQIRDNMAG

LTK (human) = LTK (human) (UniProt P29376)
MAP4K2 (human) = MAP4K2 (human) (UniProt Q12851)
MARK1 (human) = MARK1 (human) (UniProt Q9P0L2)
MARK1 (human), sequence (Q9P0L2 whole entry, looked up): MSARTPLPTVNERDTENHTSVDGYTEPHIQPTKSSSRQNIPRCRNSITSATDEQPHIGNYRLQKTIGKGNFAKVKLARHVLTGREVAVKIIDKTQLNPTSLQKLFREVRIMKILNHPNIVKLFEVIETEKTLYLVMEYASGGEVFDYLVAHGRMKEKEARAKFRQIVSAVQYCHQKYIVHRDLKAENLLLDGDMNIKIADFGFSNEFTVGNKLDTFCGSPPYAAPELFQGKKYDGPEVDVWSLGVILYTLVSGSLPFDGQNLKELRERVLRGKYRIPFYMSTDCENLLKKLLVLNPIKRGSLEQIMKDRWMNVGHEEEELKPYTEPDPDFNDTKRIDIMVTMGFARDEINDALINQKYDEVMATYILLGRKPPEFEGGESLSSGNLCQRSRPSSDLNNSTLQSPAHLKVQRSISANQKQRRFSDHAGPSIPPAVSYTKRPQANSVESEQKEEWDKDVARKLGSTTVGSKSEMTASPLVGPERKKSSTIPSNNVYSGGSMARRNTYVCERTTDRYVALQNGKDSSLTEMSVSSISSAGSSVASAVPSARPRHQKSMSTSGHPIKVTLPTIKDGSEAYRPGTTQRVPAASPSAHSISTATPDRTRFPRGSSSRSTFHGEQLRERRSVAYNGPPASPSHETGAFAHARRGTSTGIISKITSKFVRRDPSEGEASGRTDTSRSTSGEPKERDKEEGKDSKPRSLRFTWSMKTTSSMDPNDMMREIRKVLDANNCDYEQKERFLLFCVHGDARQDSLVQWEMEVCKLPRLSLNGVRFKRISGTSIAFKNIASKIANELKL

MST4 (human) = MST4 (human) (UniProt Q9P289)
MST4 (human), sequence (Q9P289 whole entry, looked up): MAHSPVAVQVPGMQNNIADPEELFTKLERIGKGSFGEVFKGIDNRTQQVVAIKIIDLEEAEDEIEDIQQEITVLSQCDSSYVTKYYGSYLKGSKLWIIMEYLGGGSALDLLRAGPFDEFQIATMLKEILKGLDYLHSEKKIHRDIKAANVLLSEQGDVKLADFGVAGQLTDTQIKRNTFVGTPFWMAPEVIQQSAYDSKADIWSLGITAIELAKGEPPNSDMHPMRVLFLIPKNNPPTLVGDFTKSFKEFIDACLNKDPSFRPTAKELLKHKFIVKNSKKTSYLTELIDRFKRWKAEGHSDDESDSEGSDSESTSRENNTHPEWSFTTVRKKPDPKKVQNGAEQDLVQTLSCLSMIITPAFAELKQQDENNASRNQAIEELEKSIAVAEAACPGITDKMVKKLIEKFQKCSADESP

PDGFRA (human) = PDGFRA (human) (UniProt P16234)
PDPK1 (human) = PDPK1 (human) (UniProt O15530)
PKN1 (human) = PKN1 (human) (UniProt Q16512)
PKN1 (human), sequence (Q16512 whole entry, looked up): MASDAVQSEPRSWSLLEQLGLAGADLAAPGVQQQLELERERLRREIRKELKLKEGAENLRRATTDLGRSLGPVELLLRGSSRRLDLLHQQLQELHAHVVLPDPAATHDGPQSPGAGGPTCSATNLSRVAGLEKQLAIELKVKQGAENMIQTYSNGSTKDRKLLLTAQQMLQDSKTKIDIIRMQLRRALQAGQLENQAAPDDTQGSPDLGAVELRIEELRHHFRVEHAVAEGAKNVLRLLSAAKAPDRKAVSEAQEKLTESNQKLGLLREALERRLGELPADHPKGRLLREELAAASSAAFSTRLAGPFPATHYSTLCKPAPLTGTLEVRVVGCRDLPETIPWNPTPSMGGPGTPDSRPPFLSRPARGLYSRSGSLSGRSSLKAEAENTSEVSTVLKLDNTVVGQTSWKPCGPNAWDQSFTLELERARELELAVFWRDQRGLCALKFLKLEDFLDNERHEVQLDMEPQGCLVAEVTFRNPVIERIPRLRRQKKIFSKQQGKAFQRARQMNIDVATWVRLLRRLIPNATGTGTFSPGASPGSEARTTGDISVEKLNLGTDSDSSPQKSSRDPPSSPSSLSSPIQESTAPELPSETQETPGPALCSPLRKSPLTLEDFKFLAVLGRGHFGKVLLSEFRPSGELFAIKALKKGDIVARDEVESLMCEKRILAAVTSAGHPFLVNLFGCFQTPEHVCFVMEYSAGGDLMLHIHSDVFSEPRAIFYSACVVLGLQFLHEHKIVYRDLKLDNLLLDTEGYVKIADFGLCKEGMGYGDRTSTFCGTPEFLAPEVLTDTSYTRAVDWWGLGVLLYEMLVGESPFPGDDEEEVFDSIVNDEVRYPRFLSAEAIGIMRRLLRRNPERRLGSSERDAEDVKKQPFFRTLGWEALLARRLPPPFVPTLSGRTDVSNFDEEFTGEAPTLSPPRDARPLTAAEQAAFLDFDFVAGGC

PNCK (human) = PNCK (human) (UniProt Q6P2M8)
PRKCI (human) = PRKCI (human) (UniProt P41743)
PRKCI (human), sequence (P41743 whole entry, looked up): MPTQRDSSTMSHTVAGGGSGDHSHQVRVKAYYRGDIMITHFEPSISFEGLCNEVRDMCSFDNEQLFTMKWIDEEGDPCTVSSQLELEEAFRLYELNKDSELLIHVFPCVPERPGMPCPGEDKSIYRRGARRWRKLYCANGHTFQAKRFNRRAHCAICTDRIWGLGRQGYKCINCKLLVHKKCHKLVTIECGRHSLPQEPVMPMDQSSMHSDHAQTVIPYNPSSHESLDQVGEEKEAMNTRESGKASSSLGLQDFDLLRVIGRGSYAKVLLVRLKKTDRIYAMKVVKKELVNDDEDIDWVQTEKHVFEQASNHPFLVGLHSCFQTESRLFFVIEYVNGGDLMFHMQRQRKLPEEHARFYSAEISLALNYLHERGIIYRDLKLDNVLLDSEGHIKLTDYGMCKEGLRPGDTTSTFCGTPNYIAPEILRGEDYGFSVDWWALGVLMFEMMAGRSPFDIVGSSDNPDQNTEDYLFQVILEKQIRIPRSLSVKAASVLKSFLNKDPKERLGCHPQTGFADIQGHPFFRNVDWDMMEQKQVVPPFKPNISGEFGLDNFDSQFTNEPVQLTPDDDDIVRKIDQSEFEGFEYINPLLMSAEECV

PRKCZ (human) = PRKCZ (human) (UniProt Q05513)
PRKX (human) = PRKX (human) (UniProt P51817)
PTK2B (human) = PTK2B (human) (UniProt Q14289)
RET (human) = RET (human) (UniProt P07949)
SLK (human) = SLK (human) (UniProt Q9H2G2)
SRMS (human) = SRMS (human) (UniProt Q9H3Y6)
SRPK3 (human) = SRPK3 (human) (UniProt Q9UPE1)
STK3 (human) = STK3 (human) (UniProt Q13188)
STK3 (human), sequence (Q13188 whole entry, looked up): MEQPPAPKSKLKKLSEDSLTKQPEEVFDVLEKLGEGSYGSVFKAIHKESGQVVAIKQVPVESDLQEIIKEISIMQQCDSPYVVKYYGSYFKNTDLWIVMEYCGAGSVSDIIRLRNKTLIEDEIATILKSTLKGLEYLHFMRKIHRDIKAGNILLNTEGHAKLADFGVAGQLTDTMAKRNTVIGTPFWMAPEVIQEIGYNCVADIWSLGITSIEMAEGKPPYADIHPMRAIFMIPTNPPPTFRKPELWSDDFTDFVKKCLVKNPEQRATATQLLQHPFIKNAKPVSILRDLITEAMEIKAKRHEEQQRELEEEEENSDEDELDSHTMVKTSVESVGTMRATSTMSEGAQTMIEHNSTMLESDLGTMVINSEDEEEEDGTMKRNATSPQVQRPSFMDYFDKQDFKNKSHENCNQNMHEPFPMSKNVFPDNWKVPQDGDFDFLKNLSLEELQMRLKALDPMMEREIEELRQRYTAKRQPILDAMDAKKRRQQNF

STK38 (human) = STK38 (human) (UniProt Q15208)
SYK (human) = SYK (human) (UniProt P43405)
WNK2 (human) = WNK2 (human) (UniProt Q9Y3S1)

SMILES: O=C1Nc2ccc(Cl)cc2/C1=C/c1cc(Cl)c(O)c(Cl)c1
- residual activity (ABL1 (human)): 84%
- residual activity (ACVRL1 (human)): 96.4%
- residual activity (AKT1 (human)): 97.9%
- residual activity (AURKC (human)): 78.6%
- residual activity (CDC42BPA (human)): 96.1%
- residual activity (CDK6 CCND3 (human)): 94.1%
- residual activity (CDK9 CCNK (human)): 79.4%
- residual activity (CHUK (human)): 97%
- residual activity (CSK (human)): 85%
- residual activity (CSNK1G2 (human)): 83.5%
- residual activity (CSNK2A1 (human)): 26.5%
- residual activity (DCLK2 (human)): 98%
- residual activity (DYRK1B (human)): 90.9%
- residual activity (DYRK2 (human)): 94%
- residual activity (EGFR (human)): 93.5%
- residual activity (EPHA1 (human)): 88.9%
- residual activity (FGR (human)): 84.8%
- residual activity (GRK6 (human)): 89.6%
- residual activity (HIPK1 (human)): 102%
- residual activity (IRAK1 (human)): 95.4%
- residual activity [1]: 103%
- residual activity (JAK2 JH1 JH2 (human)): 91.1%
- residual activity (LTK (human)): 36.9%
- residual activity (MAP4K2 (human)): 62.6%
- residual activity (MARK1 (human)): 89.5%
- residual activity (MST4 (human)): 101%
- residual activity (PDGFRA (human)): 70.3%
- residual activity (PDPK1 (human)): 103%
- residual activity (PKN1 (human)): 93%
- residual activity (PNCK (human)): 94.2%
- residual activity (PRKCI (human)): 94.1%
- residual activity (PRKCZ (human)): 95.3%
- residual activity (PRKX (human)): 92.1%
- residual activity (PTK2B (human)): 96.7%
- residual activity (RET (human)): 80.4%
- residual activity (SLK (human)): 95.3%
- residual activity (SRMS (human)): 86.3%
- residual activity (SRPK3 (human)): 88.3%
- residual activity (STK3 (human)): 31.6%
- residual activity (STK38 (human)): 85.4%
- residual activity (SYK (human)): 93.3%
- residual activity (WNK2 (human)): 115%

SMILES: CNc1cc2c(Nc3cccc(Br)c3)ncnc2cn1
- residual activity (ABL1 (human)): 89.8%
- residual activity (ACVRL1 (human)): 90.6%
- residual activity (AKT1 (human)): 98.8%
- residual activity (AURKC (human)): 85.9%
- residual activity (CDC42BPA (human)): 95.2%
- residual activity (CDK6 CCND3 (human)): 90.8%
- residual activity (CDK9 CCNK (human)): 105%
- residual activity (CHUK (human)): 99%
- residual activity (CSK (human)): 82%
- residual activity (CSNK1G2 (human)): 95.8%
- residual activity (CSNK2A1 (human)): 94.3%
- residual activity (DCLK2 (human)): 90.4%
- residual activity (DYRK1B (human)): 92.3%
- residual activity (DYRK2 (human)): 89.9%
- residual activity (EGFR (human)): 1.99%
- residual activity (EPHA1 (human)): 103%
- residual activity (FGR (human)): 88.3%
- residual activity (GRK6 (human)): 91.1%
- residual activity (HIPK1 (human)): 96.5%
- residual activity (IRAK1 (human)): 85.2%
- residual activity [1]: 79.9%
- residual activity (JAK2 JH1 JH2 (human)): 82.1%
- residual activity (LTK (human)): 76.2%
- residual activity (MAP4K2 (human)): 74.8%
- residual activity (MARK1 (human)): 96.1%
- residual activity (MST4 (human)): 109%
- residual activity (PDGFRA (human)): 99%
- residual activity (PDPK1 (human)): 97.7%
- residual activity (PKN1 (human)): 103%
- residual activity (PNCK (human)): 100%
- residual activity (PRKCI (human)): 96.4%
- residual activity (PRKCZ (human)): 98.6%
- residual activity (PRKX (human)): 97.1%
- residual activity (PTK2B (human)): 94.5%
- residual activity (RET (human)): 78.5%
- residual activity (SLK (human)): 63%
- residual activity (SRMS (human)): 100%
- residual activity (SRPK3 (human)): 97.1%
- residual activity (STK3 (human)): 99.9%
- residual activity (STK38 (human)): 98.5%
- residual activity (SYK (human)): 95.3%
- residual activity (WNK2 (human)): 114%
